From ChEMBL document CHEMBL1144260, “Hybridization dependent cleavage of internally modified disulfide-peptide nucleic acids” (Bioorg Med Chem Lett, 2005)

Legend:
Type in all cases: functional
Nucleic Acid [1] = assay: Percentage of cleavage in single stranded peptide nucleic acid was measured after treating with compound for 10 min; selectivity factor=0.6; PNA:DNA=5a:6
Nucleic Acid [2] = assay: Percentage of cleavage in single stranded peptide nucleic acid (PNA) DNA duplex was measured after treating with compound for 10 min; selectivity factor=0.6; PNA:DNA=5a:6
Nucleic Acid [3] = assay: Percentage of cleavage in single stranded peptide nucleic acid (PNA) DNA duplex was measured after treating with compound for 30 min; selectivity factor=1; PNA:DNA=5a:6
Nucleic Acid [4] = assay: Percentage of cleavage in single stranded peptide nucleic acid was measured after treating with compound for 30 min; selectivity factor=1; PNA:DNA=5a:6
Nucleic Acid [5] = assay: Percentage of cleavage in single stranded peptide nucleic acid was measured after treating with compound for 30 min; selectivity factor=0.7; PNA:DNA=5a:6
Nucleic Acid [6] = assay: Percentage of cleavage in single stranded peptide nucleic acid (PNA) DNA duplex was measured after treating with compound for 30 min; selectivity factor=0.7; PNA:DNA=5a:6
Nucleic Acid [7] = assay: Percentage of cleavage in single stranded peptide nucleic acid was measured after treating with compound for 30 min; selectivity factor=10.2; PNA:DNA=5a:6
Nucleic Acid [8] = assay: Percentage of cleavage in single stranded peptide nucleic acid (PNA) DNA duplex was measured after treating with compound for 30 min; selectivity factor=10.2; PNA:DNA=5a:6
Nucleic Acid [9] = assay: Percentage of cleavage in single stranded peptide nucleic acid was measured after treating with compound for 0.5 min; selectivity factor=0.9; PNA:DNA=5a:6
Nucleic Acid [10] = assay: Percentage of cleavage in single stranded peptide nucleic acid (PNA) DNA duplex was measured after treating with compound for 0.5 min; selectivity factor=0.9; PNA:DNA=5a:6
Nucleic Acid [11] = assay: Percentage of cleavage in single stranded peptide nucleic acid was measured after treating with compound for 2 min; selectivity factor=1.5; PNA:DNA=5a:6
Nucleic Acid [12] = assay: Percentage of cleavage in single stranded peptide nucleic acid (PNA) DNA duplex was measured after treating with compound for 2 min; selectivity factor=1.5; PNA:DNA=5a:6
Nucleic Acid [13] = assay: Percentage of cleavage in single stranded peptide nucleic acid was measured after treating with compound for 20 min; selectivity factor=22.2; PNA:DNA=5c:8b
Nucleic Acid [14] = assay: Percentage of cleavage in single stranded peptide nucleic acid (PNA) DNA duplex was measured after treating with compound for 20 min; selectivity factor=25.7; PNA:DNA=5c:8a
Nucleic Acid [15] = assay: Percentage of cleavage in single stranded peptide nucleic acid was measured after treating with compound for 20 min; selectivity factor=25.7; PNA:DNA=5c:8a
Nucleic Acid [16] = assay: Percentage of cleavage in single stranded peptide nucleic acid was measured after treating with compound for 2 min; selectivity factor>1; PNA:DNA=5a:6
Nucleic Acid [17] = assay: Percentage of cleavage in single stranded peptide nucleic acid was measured after treating with compound for 2 min; selectivity factor>/=1; PNA:DNA=5a:6b
Nucleic Acid [18] = assay: Percentage of cleavage in single stranded peptide nucleic acid was measured after treating with compound for 20 min; selectivity factor=57.1; PNA:DNA=5c:8
Nucleic Acid [19] = assay: Percentage of cleavage in single stranded peptide nucleic acid (PNA) DNA duplex was measured after treating with compound for 20 min; selectivity factor=22.2; PNA:DNA=5c:8b
Nucleic Acid [20] = assay: Percentage of cleavage in single stranded peptide nucleic acid was measured after treating with compound for 20 min; selectivity factor=17.3; PNA:DNA=5b:7
Nucleic Acid [21] = assay: Percentage of cleavage in single stranded peptide nucleic acid (PNA) DNA duplex was measured after treating with compound for 2 min; selectivity factor>1; PNA:DNA= 5a:6
Nucleic Acid [22] = assay: Percentage of cleavage in single stranded peptide nucleic acid (PNA) DNA duplex was measured after treating with compound for 20 min; selectivity factor=7.4; PNA:DNA=5b:7a
Nucleic Acid [23] = assay: Percentage of cleavage in single stranded peptide nucleic acid (PNA) DNA duplex was measured after treating with compound for 2 min; selectivity factor>/=1; PNA:DNA=5a:6b
Nucleic Acid [24] = assay: Percentage of cleavage in single stranded peptide nucleic acid (PNA) DNA duplex was measured after treating with compound for 20 min; selectivity factor=2.9; PNA:DNA=5b:7b
Nucleic Acid [25] = assay: Percentage of cleavage in single stranded peptide nucleic acid was measured after treating with compound for 20 min; selectivity factor=7.4; PNA:DNA=5b:7a
Nucleic Acid [26] = assay: Percentage of cleavage in single stranded peptide nucleic acid (PNA) DNA duplex was measured after treating with compound for 20 min; selectivity factor=57.1; PNA:DNA=5c:8
Nucleic Acid [27] = assay: Percentage of cleavage in single stranded peptide nucleic acid was measured after treating with compound for 20 min; selectivity factor=2.9; PNA:DNA=5b:7b
Nucleic Acid [28] = assay: Percentage of cleavage in single stranded peptide nucleic acid (PNA) DNA duplex was measured after treating with compound for 20 min; selectivity factor=17.3; PNA:DNA=5b:7
Nucleic Acid [29] = assay: Percentage of cleavage in single stranded peptide nucleic acid was measured after treating with compound for 30 min; selectivity factor=1.6; PNA:DNA=5a:6
Nucleic Acid [30] = assay: Percentage of cleavage in single stranded peptide nucleic acid (PNA) DNA duplex was measured after treating with compound for 30 min; selectivity factor=1.6; PNA:DNA=5a:6
Nucleic Acid [31] = assay: Percentage of cleavage in single stranded peptide nucleic acid (PNA) DNA duplex was measured after treating with compound for 300 min; selectivity factor=4.6; PNA:DNA=5a:6 (with NaCl 0.5 M)
Nucleic Acid [32] = assay: Percentage of cleavage in single stranded peptide nucleic acid (PNA) DNA duplex was measured after treating with compound for 300 min; selectivity factor=2.8; PNA:DNA=5c:8a
Nucleic Acid [33] = assay: Percentage of cleavage in single stranded peptide nucleic acid (PNA) DNA duplex was measured after treating with compound for 300 min; selectivity factor=23.8; PNA:DNA=5a:6
Nucleic Acid [34] = assay: Percentage of cleavage in single stranded peptide nucleic acid (PNA)-DNA duplex was measured after treating with compound for 300 min; selectivity factor=10.1; PNA:DNA=5b:7
Nucleic Acid [35] = assay: Percentage of cleavage in single stranded peptide nucleic acid was measured after treating with compound for 300 min; selectivity factor=23.8; PNA:DNA=5a:6
Nucleic Acid [36] = assay: Percentage of cleavage in single stranded peptide nucleic acid was measured after treating with compound for 300 min; selectivity factor=10.1; PNA:DNA=5b:7
Nucleic Acid [37] = assay: Percentage of cleavage in single stranded peptide nucleic acid was measured after treating with compound for 300 min; selectivity factor=2.8; PNA:DNA=5c:8a
Nucleic Acid [38] = assay: Percentage of cleavage in single stranded peptide nucleic acid was measured after treating with compound for 300 min; selectivity factor=4.6; PNA:DNA=5a:6 (with NaCl 0.5 M)

Compound: NC(CS)C(=O)O (stereo not drawn)
- Cleavage (Nucleic Acid [1]): 16.2%
- Cleavage (Nucleic Acid [2]): 28.4%

Compound: O=C(O)c1ccc(P(c2ccccc2)c2ccccc2)cc1
- Cleavage (Nucleic Acid [3]): 88.6%
- Cleavage (Nucleic Acid [4]): 92.9%

Compound: O=C(O)CCS
- Cleavage (Nucleic Acid [5]): 52.3%
- Cleavage (Nucleic Acid [6]): 78.9%

Compound: OCC(S)C(S)CO (stereo not drawn)
- Cleavage (Nucleic Acid [7]): 77.2%
- Cleavage (Nucleic Acid [8]): 7.6%

Compound: CN(C)c1ccc(P(c2ccccc2)c2ccccc2)cc1
- Cleavage (Nucleic Acid [9]): 19.5%
- Cleavage (Nucleic Acid [10]): 23%

Compound: NCCS
- Cleavage (Nucleic Acid [11]): 86.8%
- Cleavage (Nucleic Acid [12]): 56.1%

Compound: O=C(O)CCP(CCC(=O)O)CCC(=O)O
- Cleavage (Nucleic Acid [13]): 97.6%
- Cleavage (Nucleic Acid [14]): 3.8%
- Cleavage (Nucleic Acid [15]): 97.6%
- Cleavage (Nucleic Acid [16]): 100%
- Cleavage (Nucleic Acid [17]): 100%
- Cleavage (Nucleic Acid [18]): 97.6%
- Cleavage (Nucleic Acid [19]): 4.4%
- Cleavage (Nucleic Acid [20]): 31.2%
- Cleavage (Nucleic Acid [21]): 70.7%
- Cleavage (Nucleic Acid [22]): 4.2%
- Cleavage (Nucleic Acid [23]): 98.6%
- Cleavage (Nucleic Acid [24]): 10.8%
- Cleavage (Nucleic Acid [25]): 31.2%
- Cleavage (Nucleic Acid [26]): 1.7%
- Cleavage (Nucleic Acid [27]): 31.2%
- Cleavage (Nucleic Acid [28]): 1.8%

Compound: O=C(O)c1ccccc1P(c1ccccc1)c1ccccc1
- Cleavage (Nucleic Acid [29]): 69.1%
- Cleavage (Nucleic Acid [30]): 43.7%

Compound: O=S(=O)(O)c1ccc(P(c2ccc(S(=O)(=O)O)cc2)c2ccc(S(=O)(=O)O)cc2)cc1
- Cleavage (Nucleic Acid [31]): 21%
- Cleavage (Nucleic Acid [32]): 34.6%
- Cleavage (Nucleic Acid [33]): 3.7%
- Cleavage (Nucleic Acid [34]): 9%
- Cleavage (Nucleic Acid [35]): 88.1%
- Cleavage (Nucleic Acid [36]): 91.1%
- Cleavage (Nucleic Acid [37]): 95.2%
- Cleavage (Nucleic Acid [38]): 97.6%
